Assay results reported in ChEMBL document CHEMBL5380844, “Discovery of a Novel, Potent, Orally Active, and Safe Inhibitor Targeting Human Mitochondrial RNA Polymerase” (J Med Chem, 2023).
Converted amounts (≈) assume the structure as drawn. Values belong to the compound of their own block, whether it stands above or below them. The source made the active and inactive calls. The calls are words filed in the database; no cut-off is given here.

Experiments:
[1] = AUC (0 to t) in ICR mouse at 10 mg/kg, po measured upto 24 hrs by LC-MS/MS analysis; type: ADME, organism-based; design: dose 10 mg/kg, time < 24 hrs, route po; conditions: in vivo
[2] = Volume of distribution at steady state in ICR mouse at 1 mg/kg, iv measured upto 24 hrs by LC-MS/MS analysis; type: ADME, organism-based; conditions: in vivo, read-out: Vdss
[3] = Oral bioavailability in ICR mouse at 10 mg/kg measured upto 24 hrs by LC-MS/MS analysis; type: ADME, organism-based; conditions: in vivo
[4] = Clearance in ICR mouse at 1 mg/kg, iv measured upto 24 hrs by LC-MS/MS analysis; type: ADME, organism-based; conditions: in vivo
[5] = Inhibition of ND1 transcript level in human A2780 cells at 500 nM measured after 12 hrs by RT-qPCR analysis relative to control; type: functional
A2780 [6] = assay: Antiproliferative activity against human A2780 cells incubated for 168 hrs by SRB method; type: functional, cell-based; conditions: A2780, 168 h
[7] = AUC (0 to infinity) in ICR mouse at 1 mg/kg, iv measured upto 24 hrs by LC-MS/MS analysis; type: ADME, organism-based; design: time < 24 hrs, dose 1 mg/kg, route iv; conditions: in vivo
[8] = MRT in ICR mouse at 1 mg/kg, iv measured upto 24 hrs by LC-MS/MS analysis; type: ADME, organism-based; conditions: in vivo
[9] = AUC (0 to t) in ICR mouse at 1 mg/kg, iv measured upto 24 hrs by LC-MS/MS analysis; type: ADME, organism-based; design: time < 24 hrs, dose 1 mg/kg, route iv; conditions: in vivo
[10] = Half life in ICR mouse at 1 mg/kg, iv measured upto 24 hrs by LC-MS/MS analysis; type: ADME, organism-based; conditions: in vivo
[11] = Cmax in ICR mouse at 1 mg/kg, iv measured upto 24 hrs by LC-MS/MS analysis; type: ADME, organism-based; design: time < 24 hrs, dose 1 mg/kg, route iv; conditions: in vivo
[12] = Cmax in ICR mouse at 10 mg/kg, po measured upto 24 hrs by LC-MS/MS analysis; type: ADME, organism-based; design: time < 24 hrs, dose 10 mg/kg, route po; conditions: in vivo
[13] = Half life in ICR mouse at 10 mg/kg, po measured upto 24 hrs by LC-MS/MS analysis; type: ADME, organism-based; conditions: in vivo
[14] = Acute toxicity in Balb/c mouse assessed as effect on kidney 100 mg/kg measured after 27 days by H and E staining based analysis; type: organism-based; conditions: in vivo, 648 h, time 27 day
[15] = Toxicity in Balb/c mouse assessed as effect on lung at 100 mg/kg by H and E staining based analysis; type: organism-based; conditions: in vivo
[16] = Toxicity in Balb/c mouse assessed as effect on kidney at 100 mg/kg by H and E staining based analysis; type: organism-based; conditions: in vivo
HepG2 = assay: Antiproliferative activity against human HepG2 cells incubated for 168 hrs by SRB method; type: functional, cell-based; conditions: HepG2, 168 h
[17] = Toxicity in Balb/c mouse assessed as effect on spleen at 100 mg/kg by H and E staining based analysis; type: organism-based; conditions: in vivo
MDA-MB-231 = assay: Antiproliferative activity against human MDA-MB-231 cells incubated for 168 hrs by SRB method; type: functional, cell-based; conditions: MDA-MB-231, 168 h
MDA-MB-468 = assay: Antiproliferative activity against human MDA-MB-468 cells incubated for 168 hrs by SRB method; type: functional, cell-based; conditions: MDA-MB-468, 168 h
A2780 [18] = assay: Antitumor activity against human A2780 cells xenografted in BALB/c nude mouse model assessed as reduction in ND1 expression in liver at 100 mg/kg, po administered daily; type: functional, organism-based
HeLa = assay: Antiproliferative activity against human HeLa cells incubated for 168 hrs by SRB method; type: functional, cell-based
DLD-1 = assay: Antiproliferative activity against human DLD-1 cells incubated for 168 hrs by SRB method; type: functional, cell-based; conditions: DLD-1, 168 h
[19] = Toxicity in Balb/c mouse assessed as effect on liver at 100 mg/kg by H and E staining based analysis; type: organism-based; conditions: in vivo
[20] = Antiproliferative activity against human PBMC cells incubated for 168 hrs by SRB method; type: functional, cell-based
NCI-H3122 = assay: Antiproliferative activity against human NCI-H3122 cells incubated for 168 hrs by SRB method; type: functional, cell-based; conditions: NCI-H3122, 168 h
A2780 [21] = assay: Antitumor activity against human A2780 cells xenografted in BALB/c nude mouse model assessed as reduction in tumor weight at 100 mg/kg, po administered daily and measured after 27 days relative to control; type: functional; design: scale not given: the % may be the effect or the level left; conditions: time 27 day
MIA PaCa-2 = assay: Antiproliferative activity against human MIA PaCa-2 cells incubated for 168 hrs by SRB method; type: functional, cell-based; conditions: MIA PaCa-2, 168 h
A549 = assay: Antiproliferative activity against human A549 cells incubated for 168 hrs by SRB method; type: functional, cell-based; conditions: A549, 168 h
A2780 [22] = assay: Antitumor activity against human A2780 cells xenografted in BALB/c nude mouse model assessed as reduction in mitochondrial DNA transcript level at 100 mg/kg, po administered daily; type: functional, organism-based
[23] = Acute toxicity in Balb/c mouse assessed as effect on liver 100 mg/kg measured after 27 days by H and E staining based analysis; type: organism-based; conditions: in vivo, 648 h, time 27 day
[24] = Solubility in PBS at pH 7.4; type: physicochemical
NCI-H1975 = assay: Antiproliferative activity against human NCI-H1975 cells incubated for 168 hrs by SRB method; type: functional, cell-based; conditions: NCI-H1975, 168 h
[25] = Toxicity in Balb/c mouse assessed as effect on heart at 100 mg/kg by H and E staining based analysis; type: organism-based; conditions: in vivo
IMR-90 = assay: Antiproliferative activity against human IMR-90 cells incubated for 168 hrs by SRB method; type: functional, cell-based; conditions: IMR-90, 168 h
A2780 [26] = assay: Antitumor activity against human A2780 cells xenografted in BALB/c nude mouse model assessed as induction of tumor shrinkage 100 mg/kg by H and E staining based immunohistochemical analysis; type: functional, organism-based

AUC(0-t) at 24 h [1]: 403 ng·h/mL | Vd [2]: 5.84 L/kg | bioavailability [3]: 13.7% | clearance [4]: 47.6 mL/min/kg | IC50 (A2780 [6]): 27 nM | AUC(0-inf) [7]: 351 ng·h/mL | MRT [8]: 2.05 h | AUC(0-t) at 24 h [9]: 294 ng·h/mL | half-life [10]: 1.61 h | Cmax [11]: 234 ng/mL | Cmax [12]: 66.6 ng/mL | half-life [13]: 2.67 h
Compound: Cc1ccc(-c2cc(=O)oc3cc(O[C@H](C)C(=O)N4CC5CCC(C4)N5)ccc23)c(C)c1
inhibition at 0.5 µM [5]: 7%

Compound: C[C@@H](Oc1ccc2c(-c3ccc(F)cc3Cl)cc(=O)oc2c1)C(=O)N1CCC[C@H](C(=O)O)C1
Activity [14]: Non-Toxic | Activity [15]: Non-Toxic | Activity [16]: Non-Toxic | IC50 (HepG2): 168 nM | Activity [17]: Non-Toxic | IC50 (MDA-MB-231): > 10000 nM | IC50 (MDA-MB-468): 189 nM | Activity (A2780 [18]): Active | IC50 (HeLa): 1050 nM | IC50 (DLD-1): 142 nM | Activity [19]: Non-Toxic | IC50 [20]: > 50000 nM | inhibition at 0.5 µM [5]: 25% | IC50 (NCI-H3122): > 10000 nM | IC50 (A2780 [6]): 138 nM | Activity (A2780 [21]): 56.75% | IC50 (MIA PaCa-2): 152 nM | IC50 (A549): 881 nM | Activity (A2780 [22]): Active | Activity [23]: Non-Toxic | solubility [24]: 6.49 µg/mL (≈ 13.7 µM) | IC50 (NCI-H1975): 221 nM | Activity [25]: Non-Toxic | IC50 (IMR-90): > 50000 nM | Activity (A2780 [26]): Active
